Like-named read-outs stand apart in the source and are kept apart here.
Test system: utrophin protein in human muscle cells derived from DMD patients
Assay: Cell-based ELISA for normalized utrophin protein level in primary human myotube cultures
Details: for % UTR vs. PDN (normalized utrophin protein as % of PDN-treated sister cultures): same experiment; for activity at 0.5 µM: Myotube, read-out: % UTR vs. DMSO (normalized utrophin protein over DMSO-solvent treated control)
Procedure: The method used to detect and determine utrophin-inducing activity of non-glucocorticoid steroids has been described previously (Courdier-Fruh, I., Barman, L., Briguet, A. & Meier, T.; 2002, Neuromuscul. Disord.; 12 Suppl:S95). Briefly, primary human muscle cell cultures were prepared according to standard protocols (Askanas V, Kwan H, Alvarez R B, Engel W K, Kobayashi T, Martinuzzi A, Hawkins E F., 1987, J Neurocytol., 16:523-537). Test compounds and the glucocorticoid 6α-methylprednisolone-21 sodium succinate (Pharmacia & Upjohn; Solu-Medrol®, PDN) as reference compound were applied at 500 nM final concentration as soon as myoblasts started to differentiate into myotubes. Incubation with the test compound was ended as soon as well differentiated myotubes have formed, typically resulting in an incubation time with a test compound for 3-7 days.
Normalized concentrations of utrophin protein in human muscle cells cultured in microtiter plates were determined by a cell-based enzyme-linked immunosorbent assay (ELISA) procedure that allows a successive readout for the cell density and utrophin protein level. For calibration, the cell density and differentiation was determined by absorbance measurements of the total dehydrogenase enzyme activity in each well using the colorimetric CellTiter 96®AQ One Solution Reagent Proliferation Assay (Promega) according to the manufacturer's recommendation. Subsequently, cells were fixed, washed, permeabilized with 0.5% (v/v) Triton X-100 and unspecific antibody binding-sites were blocked by standard procedures. Utrophin protein levels were determined immunologically with utrophin-specific primary antibodies (mouse monoclonal antibody to the amino terminal portion of utrophin, NCL-DRP2, Novocastra Laboratories) and with appropriate peroxidase-coupled secondary antibodies using QuantaBlu™ Fluorogenic Peroxidase Substrate Kit (Pierce) for detection. Fluorescence measurements were carried out with a multilabel counter (Wallac) at λex=325 nm and at λem=420 nm. The primary readout of this signal is presented in arbitrary units. For calibration, the arbitrary units representing the relative utrophin protein content of each well were divided by the corresponding cell-titer absorbance value to correct for cell density. For comparison between experiments, the cell-titer corrected readout for utrophin protein content in each well was expressed in percent of solvent treated control cultures (set to 100%). PDN was included in all experiments as reference glucocorticoid, N=3-5 for each compound tested.
Non-glucocorticoid test compounds, applied in a concentration of 500 nM, were regarded as “positive” in case the increase in the level of utrophin protein was at least 20% (mean value) over control cultures treated with the appropriate dilution of DMSO solvent as control and containing no test compound.
A range of different pharmaceutical compounds were tested for their ability to increase levels of utrophin protein in primary human myotube cultures. The cell-based ELISA protocol used to detect the level of utrophin protein is provided above and described in Courdier-Fruh, I., Barman, L., Briguet, A. & Meier, T, 2002, Neuromuscul. Disord.: 12, Suppl:S95. Briefly, fixed and permeabilized human muscle cells derived from DMD patients and cultured in 96-well cell culture plates were incubated with antibodies specific for utrophin at a dilution of 1:1'000 in blocking solution (phosphate buffered saline (PBS) supplemented with 2% fetal calf serum and 1% bovine serum albumin) for 10-15 hours at 4° C. Following several washing steps with 0.1% Triton X-100 in PBS, peroxidase-coupled secondary antibodies diluted 1:3'000 in blocking solution were applied in each well for 1-2 hours at room temperature. Signal detection, data acquisition and normalization was performed as described above and in Courdier-Fruh, I., Barman, L., Briguet, A. & Meier, T, 2002, Neuromuscul. Disord.: 12, Suppl:S95. […]

[1] = 500 nM compound, human muscle cultures, mean value, N=3-6

SMILES	% UTR vs. PDN (normalized utrophin protein as % of PDN-treated sister cultures) [1] [%]	activity at 0.5 µM (Homo sapiens) [%]	activity at 0.5 µM [1] [%]	inhibition of CDCA-mediated utrophin increase by glucocorticoid receptor antagonist RU38486 (500 nM CDCA + 500 nM RU38486 simultaneously, human DMD-patient derived muscle cells, FIG. 2)	utrophin protein levels normalized to cell density (UTR, relative units) compared to solvent-treated control (DMSO) (human DMD-patient derived muscle cells, 500 nM, FIG. 1 / FIG. 2, N=5-6, listed as CDCA)
CC(=O)O[C@@H]1CC[C@]2(C)C3C[C@H](OC(C)=O)[C@]4(C)C(C(C)CCC(=O)O)CCC4C3CC[C@@H]2C1 (stereo partly shown) [Example 3]	122	144	–	–	–
CC(=O)O[C@@H]1CC[C@]2(C)C3C(=O)C[C@]4(C)C(C(C)CCC(=O)O)CCC4C3CC[C@@H]2C1 (stereo partly shown) [Example 4]	112	130	–	–	–
CC(CCC(=O)O)C1CCC2C3CC(=O)[C@@H]4C[C@H](O)CC[C@]4(C)C3CC[C@]12C (stereo partly shown) [Example 5]	108	–	136	–	–
CC(CCC(=O)O)C1CCC2C3CC[C@@H]4C[C@H](OC(=O)c5ccccc5)CC[C@]4(C)C3C(=O)C[C@]12C (stereo partly shown) [Example 6]	106	123	–	–	–
CC(=O)O[C@@H]1CC[C@]2(C)C3CC[C@]4(C)C(C(C)CCC(=O)O)CCC4C3CC[C@@H]2C1 (stereo partly shown) [Example 7]	104	121	–	–	–
CC(CCC(=O)O)C1CCC2C3CC[C@@H]4CC(=O)CC[C@]4(C)C3CC[C@]12C (stereo partly shown) [Example 8]	99	–	120	–	–
CC(CCC(=O)O)C1CCC2C3CC[C@@H]4C[C@H](O)CC[C@]4(C)C3CC[C@]12C (stereo partly shown) [Example 9]	98	–	119	–	–
CC(CCC(=O)O)C1CCC2C3C(CC[C@]12C)[C@@]1(C)CC[C@@H](O)C[C@H]1C[C@@H]3O (stereo partly shown) [Example 10]	96	121	–	–	–
C[C@H](CCC(=O)O)[C@H]1CC[C@H]2[C@@H]3[C@H](O)C[C@@H]4C[C@H](O)CC[C@]4(C)[C@H]3CC[C@]12C [Example 11, 3α,7α-dihydroxy-5β-cholanic acid]	81	172	–	not inhibited	significantly increased
CC(CCC(=O)O)C1CCC2C3CC=C4C[C@H](O)CC[C@]4(C)C3CC[C@]12C (stereo partly shown) [Example 13]	96	126	–	–	–
CC(=O)O[C@H]1CC[C@]2(C)C3C(=O)C[C@@]4(C)[C@H](C(C)CCC(=O)O)CC[C@]4(C)C3C(=O)CC2C1(C)C (stereo partly shown) [Example 14]	92	115	–	–	–
CC(CCC(=O)O)C1CCC2C3C(=O)C[C@@H]4CC(=O)CC[C@]4(C)C3CC(=O)[C@]12C (stereo partly shown) [Example 15]	92	–	117	–	–
C[C@H](C(=O)O)C1CCC2C3CC=C4C[C@H](O)CC[C@]4(C)C3CC[C@@]21C (stereo partly shown) [Example 16]	104	136	–	–	–
CCOC(=O)[C@H]1CCC2C3CC=C4C[C@@H](OC(=O)c5ccccc5)CC[C@]4(C)C3CC[C@@]21C (stereo partly shown) [Example 17]	103	120	–	–	–
C[C@]12CCC(=O)C=C1CCC1C2CC[C@]2(C)[C@@H](C(=O)O)CC[C@]12O (stereo partly shown) [Example 18]	101	120	–	–	–
CC(=O)O[C@@H]1CC[C@]2(C)C3CC[C@]4(C)[C@@H](C(=O)O)[C@@H](OC(C)=O)C[C@]4(O)C3CC[C@@H]2C1 (stereo partly shown) [Example 19]	98	123	–	–	–

SMILES	% UTR vs. PDN (normalized utrophin protein as % of PDN-treated sister cultures) [1] [%]	activity at 0.5 µM (Homo sapiens) [%]	activity at 0.5 µM [1] [%]	inhibition of CDCA-mediated utrophin increase by glucocorticoid receptor antagonist RU38486 (500 nM CDCA + 500 nM RU38486 simultaneously, human DMD-patient derived muscle cells, FIG. 2)	utrophin protein levels normalized to cell density (UTR, relative units) compared to solvent-treated control (DMSO) (human DMD-patient derived muscle cells, 500 nM, FIG. 1 / FIG. 2, N=5-6, listed as CDCA)
CC1CC[C@@]2(OC1)O[C@H]1C[C@H]3[C@@H]4CC[C@H]5C[C@@H](OC(=O)c6ccccc6)CC[C@]5(C)C4=CC(=O)[C@]3(C)C1[C@@H]2C (stereo partly shown) [Example 20]	113	131	–	–	–
CC(=O)O[C@H]1CC[C@]2(C)C3C[C@@H](O)[C@]4(C)C5[C@H](C[C@H]4[C@@H]3CC[C@H]2C1)O[C@]1(CCC(C)CO1)[C@H]5C (stereo partly shown) [Example 21]	105	130	–	–	–
CC1CC[C@@]2(OC1)O[C@H]1C[C@H]3[C@@H]4CC[C@H]5C[C@@H](OC(=O)c6ccccc6)CC[C@]5(C)C4=CC[C@]3(C)C1[C@@H]2C (stereo partly shown) [Example 22]	106	123	–	–	–
CC(=O)O[C@H]1CC[C@]2(C)C3=CC(=O)[C@]4(C)C5[C@H](C[C@H]4[C@@H]3CC[C@H]2C1)O[C@]1(CCC(C)CO1)[C@H]5C (stereo partly shown) [Example 23]	103	129	–	–	–
CC(=O)O[C@H]1CC[C@]2(C)C3C(=O)[C@@H](OC(C)=O)[C@]4(C)C5[C@H](C[C@H]4[C@@H]3CC[C@H]2C1)O[C@]1(CCC(C)CO1)[C@H]5C (stereo partly shown) [Example 24]	103	134	–	–	–
CC(=O)O[C@H]1CC[C@]2(C)C3C=C[C@]4(C)C5[C@H](C[C@H]4[C@@H]3CC[C@H]2C1)O[C@]1(CCC(C)CO1)[C@H]5C (stereo partly shown) [Example 25]	102	129	–	–	–
COC(=O)CCC(=O)O[C@H]1CC[C@]2(C)C3C(=O)[C@@H](O)[C@]4(C)C5[C@H](C[C@H]4[C@@H]3CC[C@H]2C1)O[C@]1(CCC(C)CO1)[C@H]5C (stereo partly shown) [Example 26]	98	123	–	–	–
CC1CC[C@@]2(OC1)O[C@H]1C[C@H]3[C@@H]4CC[C@H]5C[C@@H](O)CC[C@]5(C)C4CC(=O)[C@]3(C)C1[C@@H]2C (stereo partly shown) [Example 27]	97	122	–	–	–
CC1CC[C@@]2(OC1)O[C@H]1C[C@H]3[C@@H]4CC[C@H]5CC(=O)CC[C@]5(C)C4CC[C@]3(C)C1[C@@H]2C (stereo partly shown) [Example 28]	93	120	–	–	–
CC1CC[C@@]2(OC1)O[C@H]1C[C@H]3[C@@H]4CC[C@H]5C[C@@H](O)CC[C@]5(C)C4CC[C@]3(C)C1[C@@H]2C (stereo partly shown) [Example 29]	91	120	–	–	–
CC(C)CCCC(C)[C@H]1CCC2C3C(=O)C[C@H]4C[C@@H](OC(=O)c5ccccc5)CC[C@]4(C)C3CC[C@@]21C (stereo partly shown) [Example 30]	109	127	–	–	–
CC(C)CCCC(C)[C@H]1CCC2C3C(=O)C=C4C[C@@H](O)CC[C@]4(C)C3CC[C@@]21C (stereo partly shown) [Example 31]	109	137	–	–	–
CC(C)CCCC(C)[C@H]1CCC2C3CC[C@H]4CC(=O)CC[C@]4(C)C3CC[C@@]21C (stereo partly shown) [Example 32]	104	132	–	–	–
CC(C)CCCC(C)[C@H]1CCC2C3=CC[C@H]4C[C@@H](O)CC[C@]4(C)C3CC[C@@]21C (stereo partly shown) [Example 33]	99	125	–	–	–
CC(C)CCCC(C)[C@H]1CCC2C3CC[C@H]4C[C@H](O)CC[C@]4(C)C3CC[C@@]21C (stereo partly shown) [Example 34]	97	125	–	–	–

Reference: patent publication US20070259837A1, “Use of Non-Glucocorticoid Steroids for the Treatment of Muscular Dystrophy” (SANTHERA PHARMACEUTICALS (SCHWEIZ) AG, priority 2004, published 2007)
